Source: publication PMC9923724, “Half sandwich-type osmium, ruthenium, iridium and rhodium complexes with bidentate glycosyl heterocyclic ligands induce cytostasis in platinum-resistant ovarian cancer cells and bacteriostasis in Gram-positive multiresistant bacteria” (Frontiers in Chemistry, 2023)
pIC50: −log10 of the molar value. Read-outs that look alike come from different tables or passages of the source.

Assays:
[1] = system: A2780 ovarian cancer cells; conditions: ref Kacsir et al., cited from earlier work
[2] = system: multiresistant bacteria (Staphylococcus aureus, Enterococcus species); parameters: method as in Balázs et al., 2022; conditions: ref Balázs et al., 2022; cited from earlier work
[3] = system: A2780 ovarian cancer cells; assay: SRB assay (cytostasis, 48 h) on A2780 cells; type: cell-based; conditions: 48 h treatment
Method: (§1) First, we assessed a set of osmium complexes (similar to Ia [[Kacsir et al., 2022]) in Figure 1] and their sugar-derived ligands, in which the benzoyl protective groups on the carbohydrate moiety were replaced by aliphatic acyl groups of different chain length (straight chain C3-C7–CO). Osmium was selected as a central ion, since osmium complexes had the best biological activity in our previous studies ([Balázs et al., 2022]; [Kacsir et al., 2022]). These compounds were tested on A2780 ovarian cancer cells for toxicity and cytostasis. The therapy of ovarian cancer is centered around platinum compounds ([Brown et al., 2019]; [Sipos et al., 2021]), therefore, it was logical to use a cellular model of ovarian cancer for the initial testing of the compounds. Toxicity was assessed using the MTT assay that measures the activity of mitochondrial complex I. We chose 4 h long treatment as in an MTT assay this time point is suitable to detect rapid, direct toxicity. Cytostasis was assessed after 48 h of treatment using the SRB assay that assesses protein content that corresponds to cell count. The characteristics of the compounds are detailed in Table 2.
(§2) 3 × 10^3 A2780 cells, were plated to 96 well plates. Cells were treated with the compounds in the concentrations indicated for either 4 h for an MTT assay or for 48 h for an SRB assay. Data is represented as average ± SD, from three biological replicates; individual assays were performed in duplicates. Values were normalized for vehicle treated cells, absorbance for vehicle treated cells equals to 1. […] Except for the Os-6 complex, Two-way ANOVA test was performed and all values were compared with each other (Tukey’s post hoc test). […] Non-linear regression was performed on the data.
(§3) 3 × 10^3 A2780 cells, 2 × 10^3 ID8 cells and 4 × 10^3 primary fibroblasts were plated to 96 well plates. Cells were treated with the compounds in the concentrations indicated for either 4 h for an MTT assay or for 48 h for an SRB assay. Data is represented as average ± SD, from three biological replicates; individual assays were performed in duplicates. Values were normalized for vehicle treated cells, absorbance for vehicle treated cells equals to 1. Statistical significance was assessed using two-way ANOVA test comparing the free ligand and each complex as a complex-ligand pair. Before the test normality was assessed using the D’Agostino-Pearson test. The ID8 SRB Ir-7+L-7 dataset had lognormal distribution. […] All other datasets had normal distribution. For better visibility the p values are presented in an excel sheet at https://figshare.com/s/2c942a812caea8869a67. Non-linear regression was performed on the A2780 SRB and the ID8 SRB datasets.
(§4) The assay was performed similar to ([Kovács et al., 2019]). Cells were seeded in 96 well plates the day before the assay. Cells were treated with the compounds for 48 h. Cells were fixed with 10% trichloroacetic acid (TCA). Fixed cells were washed in distilled water 3 times followed by staining with SRB (0.4 m/V% dissolved in 1% acetic acid) for 10 min. Stained cells were washed in 1% acetic acid 5 times; acetic acid was removed and cells were left to dry. Protein-bound SRB was released by adding 100 µl 10 mM Tris base. Plates were measured in a plate photometer (Thermo Scientific Multiscan GO spectrophotometer, Waltham, MA, United States) at 540 nm. On each plate wells were designed to contain vehicle-treated cells. In calculations the readings for these wells was considered as 1 and all readings were expressed relative to these values.
Statistical analysis was performed using 8.0.1 version of Graphpad Prism. Values were tested for normal distribution using the D’Agostino and Pearson normality test. When necessary, values were log normalized or were normalized using the Box-Cox normalization method ([Box and Cox, 1964]) as indicated in the figure captions. […]

[4] = Determination of the distribution coefficients (logD); type: physicochemical; conditions: distribution coefficient
[5] = system: methicillin-resistant Staphylococcus aureus (MRSA) clinical isolates; assay: Broth microdilution MIC, clinical MRSA isolates; type: cell-based
Method: (§5) The MIC values of the complexes were determined against the reference strains of S. aureus (ATCC29213) and E. faecalis. (ATCC29212) and against clinical VRE and MRSA isolates by microdilution assays (repeated at least twice in duplicates) as described in Materials and Methods. The numbers indicate how many isolates were susceptible to the compound out of those tested; i.e., 1/6 stands for 1 isolate was susceptible out of 6 tested. […] Cells were harvested and lysed. Cellular proteins was separated on a 10% SDS-PAGE gel and were blotted. Blots were probed with 4HNE antibody (top blot), the lower blot was stained with amido black. Arrows point at band of interest. Experiments were repeated three times and a representative blot is shown. On the blots brightness and contrast were adjusted. […] Each was matched to a substance and strain by its position over the x-axis categories. / Ir-7: ND and 0/3 (left plot) and ND and 0/6 (right plot) were matched to E. faecalis/VRE and S. aureus/MRSA by position only.
(§6) We used a set of clinical isloates of S. aureus and E. faecium that were collected at the Medical Center of the University of Debrecen (Hungary) between 01. 01. 2018.—31. 12. 2020. The clinical isolates were identified using a Microflex MALDI-TOF mass spectrometer (Bruker, Billerica, MA, United States). Antibiotic susceptibility of the isolates was tested following the European Committee on Antimicrobial Susceptibility Testing ([EUCAST, 2021]) guidelines valid at the time of collection.
(§7) Microdilution experiments were performed according to the standards of EUCAST ([EUCAST, 2021]). […] The inoculated plates were incubated for 24 h at 37°C then were assessed visually. […] All experiments were performed at least twice in duplicates.

[6] = system: A2780 ovarian cancer cells; assay: MTT reduction assay (rapid toxicity, 4 h) on A2780 cells; type: cell-based; conditions: 4 h treatment
Method: as §1, §2, §3
(§8) MTT reduction assay measures the activity of mitochondrial complex I and can be used to detect toxicity ([Virág et al., 1998]; [Henslee et al., 2016]). The assay was performed similar to ([Bakondi et al., 2003]). Briefly, cells were plated in 96 well plates the day before the assay. Cells were treated with the compounds for 4 h, then MTT was added in 0.5 mg/ml final concentration and cells were incubated at 37°C in a cell incubator. Culture media was removed and the reduced MTT dye was dissolved in dimethyl-sulfoxide (DMSO) and plates were measured in a plate photometer (Thermo Scientific Multiscan GO spectrophotometer, Waltham, MA, United States) at 540 nm. On each plate wells were designed to contain untreated/vehicle-treated cells. In calculations the readings for these wells was considered as 1 and all readings were expressed relative to these values.

[7] = system: Staphylococcus aureus (ATCC29213); assay: Broth microdilution MIC, Staphylococcus aureus reference strain; type: cell-based
Method: as §5
(§9) We used the reference strains of Staphylococcus aureus (ATCC29213), and Enterococcus faecalis (ATCC29212) that were purchased from ATCC (Manassas, VA, United States).
as §7

[8] = system: Enterococcus faecalis (ATCC29212); assay: Broth microdilution MIC, Enterococcus faecalis reference strain; type: cell-based
Method: as §5, §9, §7

[9] = system: vancomycin-resistant Enterococcus (VRE) clinical isolates; assay: Broth microdilution MIC, clinical VRE isolates; type: cell-based, E. faecium
Method: as §5, §6, §7

[10] = system: primary dermal fibroblasts; assay: MTT reduction assay (4 h) on primary fibroblasts; type: cell-based; conditions: primary human dermal fibroblasts
Method: as §3
Human primary dermal fibroblasts were cultured in low glucose DMEM (1 g/L glucose) medium supplemented with 20% fetal calf serum, 2 mM glutamine, 1% penicillin-streptomycin.
as §8

[11] = system: cisplatin resistant A2780 cells; assay: SRB assay (48 h) on cisplatin-resistant A2780 cells; type: cell-based
Method: 6 × 10^3 cisplatin-resistant A2780 cells were plated to 96 well plates. Cells were treated with the compounds in the concentrations indicated for either 4 h for an MTT assay or for 48 h for an SRB assay. Data is represented as average ± SD, from three biological replicates; individual assays were performed in duplicates. Values were normalized for vehicle treated cells, absorbance for vehicle treated cells equals to 1. Each compound was assessed individually. Normality was assessed using the Shapiro-Wilk test. […] Statistical significance was assessed using One-way ANOVA test comparing all points to the smallest concentration. For better visibility the p values are presented in an excel sheet at https://figshare.com/s/2c942a812caea8869a67. Non-linear regression was performed on the results of the SRB assay datasets.
Cisplatin resistant cells underwent selection (1 µM cisplatin) once a week for 3 days before plating for any assay.
as §4
Statistical analysis was performed using 8.0.1 version of Graphpad Prism. Values were tested for normal distribution using the D’Agostino and Pearson normality test. When necessary, values were log normalized or were normalized using the Box-Cox normalization method ([Box and Cox, 1964]) as indicated in the figure captions.

[12] = Solubility / precipitation observed during testing; type: physicochemical; conditions: free ligand in cell assays
Method: In concentrations exceeding 33.3 µM the complexes frequently precipitated. All of the complexes and the free ligand exerted little rapid cytotoxicity in MTT assays, not more than 35% in any of the cell lines assessed in the peak concentration, except for the Os-7 complex with 75% toxicity on ID8 cells (Figure 5; Table 2). […] The complexes were more efficient in ID8 cells as compared to A2780 cells (Figure 5; Table 2). […] On primary non-transformed fibroblasts, used as controls, the complexes exerted negligible toxicity and low cytostatic activity (Figure 5; Table 2). The cytostatic activity was not more than 50% in the peak concentration.

[13] = cisplatin resistant A2780 cells, SRB, 48 h

For `Cc1ccc(C(C)C)cc1.F[P-](F)(F)(F)(F)F.O=C(OCC1OC(n2cc(-c3ccccn3)nn2)C(OC(=O)c2ccccc2)C(OC(=O)c2ccccc2)C1OC(=O)c1ccccc1)c1ccccc1.[Cl][Os+]` (mixture of isomers) [Ia], the pIC50 ([1]; A2780 cells, 2022, read-out: IC50 against A2780 ovarian cancer) is given as 6.14 and the “MIC on multiresistant bacteria” value [2] is given as 0.3 to 5.0 µM.
In the case of `CCCCCCCC(=O)OCC1OC(n2cc(-c3ccccn3)nn2)C(OC(=O)CCCCCCC)C(OC(=O)CCCCCCC)C1OC(=O)CCCCCCC.Cc1ccc(C(C)C)cc1.F[P-](F)(F)(F)(F)F.[Cl][Os+]` (mixture of isomers) [Os-6], the “A2780 SRB Max. (maximal inhibition)” value [3] was 88.4%, the LogD [4] was 2.8 and the “MIC against clinical MRSA isolates (as a group)” value ([5]; 6 clinical MRSA isolates) was over 40 µM. For the same compound, the “MRSA isolates susceptible out of those tested” value ([5]; 6 isolates tested, susceptible = MIC up to 40 µM) was 0/6, the “MIC, MRSA 20 426” value ([5]; clinical isolate 20 426, blood, 2020) was 40< µM and the “MIC, MRSA 24 035” value ([5]; clinical isolate 24 035, wound, 2018) was 40< µM. The “MIC, MRSA 24 268” value ([5]; clinical isolate 24 268, throat, 2018) was 40< µM, the “MIC, MRSA 24 272” value ([5]; clinical isolate 24 272, throat, 2018) was 40< µM and the “MIC, MRSA 24 328” value ([5]; clinical isolate 24 328, throat, 2018) was 40< µM. For the same compound, the “MIC, MRSA 24 408” value ([5]; clinical isolate 24 408, bronchial, 2018) was 40< µM, the “A2780 MTT Max. (maximal inhibition)” value [6] was 76.9% and the pIC50 [6] was 4.78. For the same compound, the “MIC, Reference S. aureus” value ([7]; Staphylococcus aureus ATCC29213, 24 h) was 40< µM, the “MIC (μM) (S. aureus), Figure 11” value ([7]; reference strain ATCC29213) was “ND (ND—not detected, MIC>40 µM)” and the “MIC, Reference E. faecalis” value ([8]; Enterococcus faecalis ATCC29212, 24 h) was 40< µM. For the same compound, the “MIC (μM) (E. faecalis), Figure 11” value ([8]; reference strain ATCC29212, printed in the picture) was “ND (ND—not detected, MIC>40 µM)”, the “MIC against clinical VRE isolates (as a group)” value ([9]; 3 clinical VRE isolates) was over 40 µM and the “VRE isolates susceptible out of those tested” value ([9]; 3 isolates tested, susceptible = MIC up to 40 µM) was 0/3. The “MIC, VRE 25 051” value ([9]; clinical isolate 25 051, nephrostoma, 2018) was 40< µM, the “MIC, VRE 25 498” value ([9]; clinical isolate 25 498, rectal swab, 2018) was 40< µM and the “MIC, VRE 27 085” value ([9]; clinical isolate 27 085, wound, 2018) was 40< µM.
In the case of `Cc1c(C)c(C)[c-](C)c1C.F[P-](F)(F)(F)(F)F.O=C(OCC1OC(n2cc(-c3ccc4ccccc4n3)nn2)C(OC(=O)c2ccccc2)C(OC(=O)c2ccccc2)C1OC(=O)c1ccccc1)c1ccccc1.[Cl][Rh+2]` (mixture of isomers) [Rh-7], the “A2780 SRB Max. (maximal inhibition)” value [3] was 47.9%, the “Fibroblast MTT Max. (maximal inhibition)” value [10] was 15.09% and the “A2780 MTT Max. (maximal inhibition)” value [6] was 18.3%.
In the case of `N.N.[Cl][Pt][Cl]` [Cisplatin, cisplatin, reference compound], the “A2780 SRB Max. (maximal inhibition), cisplatin” value ([1]; A2780 cells, SRB, 2021) is listed as over 90%, the pIC50 ([1]; cisplatin-sensitive A2780 cells, SRB, 2021, read-out: A2780 SRB IC50, cisplatin) is listed as 5.92 and the “fold change of IC50, cisplatin resistant vs cisplatin sensitive A2780” value ([11]; SRB assays, resistant / sensitive A2780) is listed as 13.6 fold. The pIC50 [11, 13] was 4.78 and the “cisplatin resistant A2780 SRB Max. (maximal inhibition)” value [11, 13] was over 90%.
With `CCCCCCCC(=O)OC[C@H]1O[C@@H](n2cc(-c3ccccn3)nn2)[C@H](OC(=O)CCCCCCC)[C@@H](OC(=O)CCCCCCC)[C@@H]1OC(=O)CCCCCCC` [L-6] the “solubility (suitability for testing)” value [12] was “insoluble”.
